Where two headings read alike, the source gives them in different places. Positions of bridges follow the written chain, without caps; N, C: chain ends. Non-standard residues stand in square brackets, D forms with d. Residues, ends and D or L forms follow the SMILES beside them. Groups on a side chain read outwards from the residue. *: point of attachment. DOTA = O=C(O)CN1CCN(CC(=O)O)CCN(CC(=O)*)CCN(CC(=O)O)CC1; 2Nal = N[C@@H](Cc1ccc2ccccc2c1)C(=O)O; Lys(iPr) = CC(C)NCCCC[C@H](N)C(=O)O
Experiments:
[1] = tested on: Daudi Burkitt's lymphoma xenografts; assay: Biodistribution in Daudi tumor-bearing mice; type: in vivo; conditions: Daudi xenograft bearing mice
Procedure: (§1) For Daudi, Z138, GRANTA519 and Jeko1 xenografts, male NOD.Cg-Rag1^tm1MomII2rg^tm1Wjl/SzJ (NRG) mice were subcutaneously inoculated on the left flank with 5×10^6 cells (100 μL; 1:1 ratio of PBS/Matrigel) and tumors were grown to a size of 200-500 mm^3. For PC-3 xenografts, male NOD.Cg-Rag1^tm1MomII2rg^tm1Wjl/SzJ (NRG) mice were subcutaneously inoculated on the left flank with 5×10^6 PC-3 cells (100 μL; 1:1 ratio of PBS/Matrigel) and tumors were grown to a size of 200-400 mm^3.
(§2) The mice were euthanized via CO2 inhalation while anesthetized with isoflurane. Tissues were harvested, washed in PBS, blotted dry, weighed, and measured on a Hidex AMG Automatic Gamma Counter.

[2] = Biodistribution in Daudi tumor-bearing mice; type: in vivo; conditions: male, NOD.Cg-Rag1^tm1MomII2rg^tm1Wjl/SzJ (NRG), mouse, iv, total radioactivity, Daudi xenograft bearing mice
Procedure: as §1, §2

[3] = 1 h blocked (7.5 μg LY2510924 i.p. 15 min before tracer)

## CC(C)NCCCC[C@@H]1NC(=O)[C@H](Cc2ccc(O)cc2)NC(=O)[C@H](Cc2ccccc2)NC(=O)CC[C@H](C(=O)N[C@@H](CCCCNC(C)C)C(=O)N[C@@H](CCCCNC(=O)[C@@H](CCC(=O)O)NC(=O)[C@@H](CCC(=O)O)NC(=O)[C@@H](CCC(=O)O)NC(=O)CN2CCN(CC(=O)O)CCN(CC(=O)O)CCN(CC(=O)O)CC2)C(N)=O)NC(=O)CNC(=O)[C@H](Cc2ccc3ccccc3c2)NC(=O)[C@@H](CCCNC(=N)N)NC1=O [[^68Ga]Ga-BL20, metal not drawn] (FY[Lys(iPr)][dR][2Nal]G[dE][Lys(iPr)]K([dE-dE-dE-DOTA])-NH2; lactam N-7)
[1]; 1 h
  Ratio Tumour:Blood: 22.78
  Ratio Tumour:Bone: 54.57
  Ratio Tumour:Liver: 15.68
  Ratio Tumour:Lung: 18.12
  Ratio Tumour:Muscle: 125.40
  Ratio Tumour:Spleen: 18.55
[1]; [3]
  Ratio Tumour:Blood: 0.90
  Ratio Tumour:Bone: 3.88
  Ratio Tumour:Liver: 1.34
  Ratio Tumour:Lung: 0.82
  Ratio Tumour:Muscle: 4.49
  Ratio Tumour:Spleen: 1.96
[1]; 2 h
  Ratio Tumour:Blood: 113.17
  Ratio Tumour:Bone: 189.39
  Ratio Tumour:Liver: 15.57
  Ratio Tumour:Lung: 37.40
  Ratio Tumour:Muscle: 346.93
  Ratio Tumour:Spleen: 41.58
[2]; Daudi tumour, 1 h, read-out: Biodistribution Daudi (tumour)
  tissue uptake at 1 h: 9.07 %ID/g
[2]; Daudi tumour, 1 h blocked (7.5 μg LY2510924 i.p. 15 min before tracer), read-out: Biodistribution Daudi (tumour)
  tissue uptake at 1 h: 0.59 %ID/g
[2]; Daudi tumour, read-out: Biodistribution Daudi (tumour)
  tissue uptake at 2 h: 8.01 %ID/g
[2]; adrenals, 1 h, read-out: Biodistribution Adrenals
  tissue uptake at 1 h: 0.35 %ID/g
[2]; adrenals, 1 h blocked (7.5 μg LY2510924 i.p. 15 min before tracer), read-out: Biodistribution Adrenals
  tissue uptake at 1 h: 0.35 %ID/g
[2]; adrenals, read-out: Biodistribution Adrenals
  tissue uptake at 2 h: 0.27 %ID/g
[2]; blood, 1 h, read-out: Biodistribution Blood
  tissue uptake at 1 h: 0.42 %ID/g
[2]; blood, 1 h blocked (7.5 μg LY2510924 i.p. 15 min before tracer), read-out: Biodistribution Blood
  tissue uptake at 1 h: 0.65 %ID/g
[2]; blood, read-out: Biodistribution Blood
  tissue uptake at 2 h: 0.08 %ID/g
[2]; bone, 1 h, read-out: Biodistribution Bone
  tissue uptake at 1 h: 0.17 %ID/g
[2]; bone, 1 h blocked (7.5 μg LY2510924 i.p. 15 min before tracer), read-out: Biodistribution Bone
  tissue uptake at 1 h: 0.15 %ID/g
[2]; bone, read-out: Biodistribution Bone
  tissue uptake at 2 h: 0.05 %ID/g
[2]; brain, 1 h, read-out: Biodistribution Brain
  tissue uptake at 1 h: 0.01 %ID/g
[2]; brain, 1 h blocked (7.5 μg LY2510924 i.p. 15 min before tracer), read-out: Biodistribution Brain
  tissue uptake at 1 h: 0.02 %ID/g
[2]; brain, read-out: Biodistribution Brain
  tissue uptake at 2 h: 0.01 %ID/g
[2]; fat, 1 h, read-out: Biodistribution Fat
  tissue uptake at 1 h: 0.06 %ID/g
[2]; fat, 1 h blocked (7.5 μg LY2510924 i.p. 15 min before tracer), read-out: Biodistribution Fat
  tissue uptake at 1 h: 0.12 %ID/g
[2]; fat, read-out: Biodistribution Fat
  tissue uptake at 2 h: 0.01 %ID/g
[2]; heart, 1 h, read-out: Biodistribution Heart
  tissue uptake at 1 h: 0.15 %ID/g
[2]; heart, 1 h blocked (7.5 μg LY2510924 i.p. 15 min before tracer), read-out: Biodistribution Heart
  tissue uptake at 1 h: 0.22 %ID/g
[2]; heart, read-out: Biodistribution Heart
  tissue uptake at 2 h: 0.05 %ID/g
[2]; intestine, 1 h, read-out: Biodistribution Intestine
  tissue uptake at 1 h: 0.21 %ID/g
[2]; intestine, 1 h blocked (7.5 μg LY2510924 i.p. 15 min before tracer), read-out: Biodistribution Intestine
  tissue uptake at 1 h: 0.37 %ID/g
[2]; intestine, read-out: Biodistribution Intestine
  tissue uptake at 2 h: 0.25 %ID/g
[2]; kidney, 1 h, read-out: Biodistribution Kidney
  tissue uptake at 1 h: 3.58 %ID/g
[2]; kidney, 1 h blocked (7.5 μg LY2510924 i.p. 15 min before tracer), read-out: Biodistribution Kidney
  tissue uptake at 1 h: 5.92 %ID/g
[2]; kidney, read-out: Biodistribution Kidney
  tissue uptake at 2 h: 3.02 %ID/g
[2]; liver, 1 h, read-out: Biodistribution Liver
  tissue uptake at 1 h: 0.58 %ID/g
[2]; liver, 1 h blocked (7.5 μg LY2510924 i.p. 15 min before tracer), read-out: Biodistribution Liver
  tissue uptake at 1 h: 0.44 %ID/g
[2]; liver, read-out: Biodistribution Liver
  tissue uptake at 2 h: 0.51 %ID/g
[2]; lung, 1 h, read-out: Biodistribution Lung
  tissue uptake at 1 h: 0.51 %ID/g
[2]; lung, 1 h blocked (7.5 μg LY2510924 i.p. 15 min before tracer), read-out: Biodistribution Lung
  tissue uptake at 1 h: 0.71 %ID/g
[2]; lung, read-out: Biodistribution Lung
  tissue uptake at 2 h: 0.22 %ID/g
[2]; muscle, 1 h, read-out: Biodistribution Muscle
  tissue uptake at 1 h: 0.08 %ID/g
[2]; muscle, 1 h blocked (7.5 μg LY2510924 i.p. 15 min before tracer), read-out: Biodistribution Muscle
  tissue uptake at 1 h: 0.13 %ID/g
[2]; muscle, read-out: Biodistribution Muscle
  tissue uptake at 2 h: 0.02 %ID/g
[2]; pancreas, 1 h, read-out: Biodistribution Pancreas
  tissue uptake at 1 h: 0.11 %ID/g
[2]; pancreas, 1 h blocked (7.5 μg LY2510924 i.p. 15 min before tracer), read-out: Biodistribution Pancreas
  tissue uptake at 1 h: 0.16 %ID/g
[2]; pancreas, read-out: Biodistribution Pancreas
  tissue uptake at 2 h: 0.04 %ID/g
[2]; spleen, 1 h, read-out: Biodistribution Spleen
  tissue uptake at 1 h: 0.49 %ID/g
[2]; spleen, 1 h blocked (7.5 μg LY2510924 i.p. 15 min before tracer), read-out: Biodistribution Spleen
  tissue uptake at 1 h: 0.3 %ID/g
[2]; spleen, read-out: Biodistribution Spleen
  tissue uptake at 2 h: 0.21 %ID/g
[2]; stomach, 1 h, read-out: Biodistribution Stomach
  tissue uptake at 1 h: 0.05 %ID/g
[2]; stomach, 1 h blocked (7.5 μg LY2510924 i.p. 15 min before tracer), read-out: Biodistribution Stomach
  tissue uptake at 1 h: 0.24 %ID/g
[2]; stomach, read-out: Biodistribution Stomach
  tissue uptake at 2 h: 0.05 %ID/g
[2]; testes, 1 h, read-out: Biodistribution Testes
  tissue uptake at 1 h: 0.15 %ID/g
[2]; testes, 1 h blocked (7.5 μg LY2510924 i.p. 15 min before tracer), read-out: Biodistribution Testes
  tissue uptake at 1 h: 0.2 %ID/g
[2]; testes, read-out: Biodistribution Testes
  tissue uptake at 2 h: 0.05 %ID/g
